{"source": "paper PMC11324297", "about": "“CDKL3 is a targetable regulator of cell cycle progression in cancers” (The Journal of Clinical Investigation, 2024)", "key": {"U2OS [1]": {"system": "U2OS", "assay": "cells", "parameters": "tumour cell growth suppression, dose response, 24 h", "settings": "Homo sapiens, 24 h", "procedure": "(§1) On the basis of a previous publication, a potential CDKL3 inhibitor candidate caught our attention. […] Thus, we intended to generate an efficient CDKL3 inhibitor based on this chemical backbone for cell cycle arrest. As the first step, the original compound (ASC67) was synthesized, and the performance was evaluated ([50]). The addition of ASC67 could gradient-dependently diminish the phosphorylation of Rb by CDKL3 while not influencing CDK4 or CDK2 in vitro (Figure 8B). The effectiveness of this chemical was then evaluated using a variety of cancer cell lines, including estrogen-responsive (ER^+) breast cancer, for which palbociclib is administrated clinically ([51]). […] As a direct comparison, the clinically approved CDK4/6 inhibitor had IC50 values ranging from 1 to 5 μM in different cell lines (Figure 8, C–F, and Supplemental Figure 6, A–F) ([47], [52]–[55]). This information made it evident that ASC67 holds considerable promise in cancer treatment and can be used as a backbone compound for further optimization. Chemical treatments Cdk1/2 Inhibitor III was dissolved in DMSO with a concentration of 25mM as stock solution. Cells were treated at a final concentration of 1.2μM. 5μM was used for in vitro kinase assay. Palbociclib was dissolved in DMSO with a concentration of 100mM as stock solution. Cells were treated with Palbociclib at a final concentration of 0.8μM. 5μM was used for in vitro kinase assay. Thymidine was dissolved in ddH2O with a concentration of 200mM. Cells were treated with Thymidine at a final concentration of 2mM. ASC67 was dissolved in DMSO with a concentration of 300mM as stock solution. For IC50 assay, cells were treated at a concentration range from 0 to 300μM. For in vitro kinase assay, the concentration ranging from 0 to 0.5μM was used. The inhibitor C3I-22 (HZ1) was dissolved in DMSO with a concentration of 300mM as stock solution. For IC50 assay, cells were treated with a concentration range from 0 to 300μM. For in vitro kinase assay, the concentration ranging from 0 to 0.1μM was used. Organoids derived from colon cancer patients were treated with a concentration range from 0 to 5μM. Balb/cA-nude and C57BL/6J-Apcmin/+ mice were treated with a concentration of 1mg/kg (suspended in PBS) through oral gavage. Other C3I inhibitors were dissolved in DMSO with a concentration of 200mM as stock solution. In vitro protein purification GST-tagged proteins were transformed into E. coli BL21 competent cells, and then protein expression was induced by adding IPTG (Beyotime Biotechnology) at 18°C for 6 to 10 hours. The bacterial culture was centrifuged (600xg, 10 min, 4°C), and the pellets were resuspended in 20mL lysis buffer (50mM Tris-HCl, 300mM NaCl, and 10% (v/v) glycerol, 1mM [compound left out], pH 7.9) and sonicated with 50% power on a SCIENTZ JY92-IIN sonicator for 20 minutes (5 seconds per time, with an interval of 5 seconds)."}, "MDA-MB-231 [2]": {"system": "MDA-MB-231", "assay": "cells", "parameters": "tumour cell growth suppression, dose response, 24 h", "settings": "Homo sapiens, MDA-MB-231, 24 h", "procedure": "as §1"}, "HeLa [3]": {"system": "HeLa", "assay": "cells", "parameters": "tumour cell growth suppression, dose response, 24 h", "settings": "Homo sapiens, 24 h", "procedure": "as §1"}, "U2OS [4]": {"system": "U2OS", "assay": "cells", "parameters": "tumour cell growth suppression, dose response, 72 h", "settings": "Homo sapiens, 72 h", "procedure": "as §1"}, "MDA-MB-231 [5]": {"system": "MDA-MB-231", "assay": "cells", "parameters": "tumour cell growth suppression, dose response, 72 h", "settings": "Homo sapiens, MDA-MB-231, 72 h", "procedure": "as §1"}, "HeLa [6]": {"system": "HeLa", "assay": "cells", "parameters": "tumour cell growth suppression, dose response, 72 h", "settings": "Homo sapiens, 72 h", "procedure": "as §1"}, "DLD-1 [7]": {"system": "DLD-1", "assay": "cells", "parameters": "tumour cell growth suppression, dose response, 24 h", "settings": "Homo sapiens, 24 h, parental cells", "procedure": "as §1"}, "DLD-1 [8]": {"system": "DLD-1", "assay": "cells", "parameters": "tumour cell growth suppression, dose response, 72 h", "settings": "Homo sapiens, 72 h, parental cells", "procedure": "as §1"}, "T47D [9]": {"system": "T47D", "assay": "cells", "parameters": "tumour cell growth suppression, dose response, 24 h", "settings": "Homo sapiens, 24 h, parental cells", "procedure": "as §1"}, "MCF7 [10]": {"system": "MCF7", "assay": "cells", "parameters": "tumour cell growth suppression, dose response, 24 h", "settings": "Homo sapiens, 24 h, parental cells", "procedure": "as §1"}, "T47D [11]": {"system": "T47D", "assay": "cells", "parameters": "tumour cell growth suppression, dose response, 72 h", "settings": "Homo sapiens, 72 h, parental cells", "procedure": "as §1"}, "MCF7 [12]": {"system": "MCF7", "assay": "cells", "parameters": "tumour cell growth suppression, dose response, 72 h", "settings": "Homo sapiens, 72 h, parental cells", "procedure": "as §1"}, "UBE3A": {"biological_target": "UBE3A (UniProt Q05086)", "assay": "co-immunoprecipitation", "settings": "reference: CDK4 wild type; sites T172"}, "Trim28": {"biological_target": "Trim28 (UniProt Q13263)", "assay": "co-immunoprecipitation", "settings": "reference: CDK4 wild type; sites T172"}, "Stub1": {"biological_target": "Stub1 (UniProt Q9UNE7)", "assay": "co-immunoprecipitation", "settings": "reference: CDK4 wild type; sites T172"}}, "data": [{"compound": "N#CCc1ccc(Nc2nccc(Nc3cc(C4CCCC4)n[nH]3)n2)cc1", "note": "[ASC67]", "values": [{"measurement": "IC50", "setting": "U2OS [1]", "result": 1.81, "unit": "µM"}, {"measurement": "IC50", "setting": "MDA-MB-231 [2]", "result": 1.83, "unit": "µM"}, {"measurement": "IC50", "setting": "HeLa [3]", "result": 0.954, "unit": "µM"}, {"measurement": "IC50", "setting": "U2OS [4]", "result": 0.998, "unit": "µM"}, {"measurement": "IC50", "setting": "MDA-MB-231 [5]", "result": 0.381, "unit": "µM"}, {"measurement": "IC50", "setting": "HeLa [6]", "result": 1.55, "unit": "µM"}]}, {"compound": "CC(=O)c1ccc(Nc2nccc(Nc3cc(C4CCCC4)n[nH]3)n2)cc1", "note": "[C3I-22, HZ1]", "values": [{"measurement": "IC50", "setting": "U2OS [1]; parental cells", "result": 1.32, "unit": "µM"}, {"measurement": "IC50", "setting": "DLD-1 [7]", "result": 0.6, "unit": "µM"}, {"measurement": "IC50", "setting": "U2OS [4]", "result": 0.348, "unit": "µM"}, {"measurement": "IC50", "setting": "U2OS [4]; parental cells", "result": 0.415, "unit": "µM"}, {"measurement": "IC50", "setting": "DLD-1 [8]", "result": 0.147, "unit": "µM"}]}, {"compound": "O=C(O)c1ccc(Nc2nccc(Nc3cc(C4CCCC4)n[nH]3)n2)cc1", "note": "[C3I-22-1, 4-((4-((3-cyclopentyl-1H-pyrazol-5-yl)amino)pyrimidin-2-yl)amino)benzoic acid]", "values": [{"measurement": "IC50", "setting": "U2OS [4]", "result": 38.8, "unit": "µM"}]}, {"compound": "CC(=O)c1c(C)c2cnc(Nc3ccc(N4CCNCC4)cn3)nc2n(C2CCCC2)c1=O", "note": "[palbociclib]", "values": [{"measurement": "IC50", "setting": "U2OS [1]", "result": 3.52, "unit": "µM"}, {"measurement": "IC50", "setting": "T47D [9]", "result": 2.15, "unit": "µM"}, {"measurement": "IC50", "setting": "MDA-MB-231 [2]", "result": 5.2, "unit": "µM"}, {"measurement": "IC50", "setting": "HeLa [3]", "result": 4.24, "unit": "µM"}, {"measurement": "IC50", "setting": "MCF7 [10]", "result": 2.88, "unit": "µM"}, {"measurement": "IC50", "setting": "T47D [11]", "result": 1.86, "unit": "µM"}, {"measurement": "IC50", "setting": "MCF7 [12]", "result": 2.57, "unit": "µM"}]}, {"compound": "CDK4 (from UniProt P11802) CDK4 T172A", "values": [{"measurement": "binding against the reference", "setting": "UBE3A", "result": "stronger"}, {"measurement": "binding against the reference", "setting": "Trim28", "result": "stronger"}, {"measurement": "binding against the reference", "setting": "Stub1", "result": "stronger"}]}]}
